Patent US20110105397A1, “METHOD FOR TREATING HEART FAILURE WITH STRESSCOPIN-LIKE PEPTIDES” (priority 2009, published 2011)

Tested on: dogs with advanced heart failure
Assay: Hemodynamic, angiographic, echocardiographic profile in anaesthetized dogs with advanced heart failure, IV infusion
Type: in vivo, dog
Method: The effects of h-SCP (SEQ ID NO:1) on cardiovascular function were also assessed in anaesthetized dogs with advanced, irreversible heart failure of ischemic etiology (Sabbah et al., 1991, Am. J. Physiol., vol. 260, pp. H1379-H1384; Sabbah et al., 1994, Circulation, vol. 98, pp. 2852-2859; Chandler et al., 2002, Circ. Res., vol. 91, pp. 278-280). Progressive, advanced heart failure was produced in mongrel dogs by multiple sequential intracoronary microembolization with polystyrene latex microspheres. Dose infusions of 2.2, 4.3, and 7.3 ng/kg/min were administered intravenously over 60 minutes just following or just prior to hemodynamic, angiographic, echocardiographic, and Doppler measurements using conventional hemodynamic, angiographic, echocardiographic, and radiographic methods. The h-SCP polypeptide (SEQ ID NO:1) produced dose- (infusion-) dependent increases in LVEF and SV and decreases in left ventricular end diastolic pressure (LVEDP), left ventricular pressure during isovolumic relaxation (LV-dP/dt), systemic vascular resistance (SVR), and left ventricular end-systolic volume (LVESV) that correlated with plasma concentration. No significant change in heart rate, peak systolic aortic blood pressure, LV+dP/dt, mean pulmonary artery pressure, mean pulmonary artery wedge pressure, right atrial pressure, or myocardial oxygen consumption were recorded following any of the 1 hour intravenous infusions (Table 18 and FIGS. 12 A & B). The improvement in LV systolic and diastolic function was not associated with the development of de novo ventricular arrhythmias.
In order to determine the threshold effective dose-infusion in dogs with advanced heart failure, a further study was performed at lower dose infusions. In addition, the opportunity was taken to explore whether the increase in LVEF produced by higher dose-infusions of 4.3 ng/kg/min would remain stable over a longer infusion period, i.e. 120 minutes.
In order to understand the potential cardiovascular effects of neutralizing antibody formation to h-SCP (SEQ ID NO:1), SV30 (SEQ ID No. 118), a competitive antagonist of CRHR2, was administered to dogs (N=4) with advanced heart failure. […] These experiments with SV30 indicate that baseline cardiovascular parameters in dogs with advanced heart failure were not dependent upon endogenous hormone stimulation of CRHR2. Similar findings have been reported in healthy conscious and anaesthetized rats (Gardiner et al., J. Pharmacol. Exp. Ther., 2007, vol 321, pp. 221-226).

[1] = Table 18, IV infusion 2.2 ng/kg/min, 60 min
[2] = Table 18, IV infusion 4.3 ng/kg/min, 60 min
[3] = Table 18, IV infusion 7.3 ng/kg/min, 60 min
[4] = Table 19, IV infusion 0.22 ng/kg/min, 60 min
[5] = Table 19, IV infusion 0.43 ng/kg/min, 60 min
[6] = Table 19, IV infusion 4.3 ng/kg/min, 60 min
[7] = Table 19, IV infusion 4.3 ng/kg/min, 120 min
[8] = Table 20, SEQ ID NO: 1 4.3 ng/kg/min + AS-30

“H-TKFTLSLDVPTNIMNLLFNIAKAKNLRAQAAANAHLMAQI-NH2 [SEQ ID NO: 1, TKFTLSLDVPTNIMNLLFNIAKAKNLRAQAAANAHLMAQI-NH2]” was tested, and the “-ESV” value [1] was 46 ± 1.7 mL, the CO [1] was 1.56 ± 0.11 L/min and the EDV [1] was 66 ± 2.5 mL. The EF [1] was 31 ± 0.5^+++,a,b %, the HR [1] was 76 ± 2 beats/min and the “LV Efficiency” value [1] was 23.0 ± 3.1%. The “LV+dP/dt (isovolumic contraction)” value [1] was 1477 ± 104 mmHg/sec, the “LVCBF (total left ventricular coronary blood flow)” value (from here on “LVCBF”) [1] was 52 ± 5 mL/min and the “LVEDP (left ventricular end diastolic pressure)” value [1] was 13 ± 0.9^+ mmHg. The “LV−dP/dt (isovolumic relaxation)” value [1] was 1216 ± 44 mmHg/sec, the “MPAP (mean pulmonary artery pressure)” value [1] was 15 ± 0.5 mmHg and the “MVO2 (myocardial oxygen consumption)” value [1] was 191 ± 14 μmols/min. For the same substance, the “PAWP (mean pulmonary artery wedge pressure)” value [1] was 9.0 ± 0.6 mmHg, the PSAP [1] was 90 ± 3 mmHg and the “RAP (mean right atrial pressure)” value [1] was 5.7 ± 0.5 mmHg. For the same substance, the SV [1] was 20 ± 0.9^+ mL, the “SVR (systemic vascular resistance)” value [1] was 4414 ± 193 dynes-sec-cm^−5 and the “-ESV” value [2] was 43 ± 1.7 mL. The CO [2] was 1.61 ± 0.13 L/min, the EDV [2] was 65 ± 2.5 mL and the EF [2] was 33 ± 0.5^+++,c %. For the same substance, the HR [2] was 73 ± 3 beats/min, the “LV Efficiency” value [2] was 26.0 ± 4.4% and the “LV+dP/dt (isovolumic contraction)” value [2] was 1400 ± 71 mmHg/sec. The “LVCBF” value [2] was 57 ± 6 mL/min, the “LVEDP (left ventricular end diastolic pressure)” value [2] was 13 ± 0.4^+ mmHg and the “LV−dP/dt (isovolumic relaxation)” value [2] was 1094 ± 42^+ mmHg/sec. The “MPAP (mean pulmonary artery pressure)” value [2] was 15 ± 0.5 mmHg, the “MVO2 (myocardial oxygen consumption)” value [2] was 177 ± 19 μmols/min and the “PAWP (mean pulmonary artery wedge pressure)” value [2] was 10 ± 0.6 mmHg. For the same substance, the PSAP [2] was 87 ± 2 mmHg, the “RAP (mean right atrial pressure)” value [2] was 5.4 ± 0.4 mmHg and the SV [2] was 22 ± 0.9^++ mL. The “SVR (systemic vascular resistance)” value [2] was 4144 ± 243^+ dynes-sec-cm^−5, the “-ESV” value [3] was 41 ± 1.8^+ mL and the CO [3] was 1.67 ± 0.09 L/min. For the same substance, the EDV [3] was 64 ± 2.4 mL, the EF [3] was 35 ± 0.9^+++ % and the HR [3] was 74 ± 2 beats/min. The “LV Efficiency” value [3] was 23.3 ± 3.2%, the “LV+dP/dt (isovolumic contraction)” value [3] was 1398 ± 74 mmHg/sec and the “LVCBF” value [3] was 59 ± 6 mL/min. The “LVEDP (left ventricular end diastolic pressure)” value [3] was 12 ± 0.6^++ mmHg, the “LV−dP/dt (isovolumic relaxation)” value [3] was 1112 ± 82^+ mmHg/sec and the “MPAP (mean pulmonary artery pressure)” value [3] was 14 ± 0.4 mmHg. The “MVO2 (myocardial oxygen consumption)” value [3] was 196 ± 18 μmols/min, the “PAWP (mean pulmonary artery wedge pressure)” value [3] was 9.0 ± 0.3 mmHg and the PSAP [3] was 87 ± 2 mmHg. For the same substance, the “RAP (mean right atrial pressure)” value [3] was 5.0 ± 0.4 mmHg, the SV [3] was 22 ± 0.9^++ mL and the “SVR (systemic vascular resistance)” value [3] was 3958 ± 182^++ dynes-sec-cm^−5. The CO [4] was 1.37 ± 0.04 L/min, the HR [4] was 75 ± 1.1 beats/min and the “LV+dP/dt” value [4] was 1842 ± 127 mmHg/sec. For the same substance, the LVEDP [4] was 14 ± 1.1 mmHg, the LVEDV [4] was 66 ± 1.5 mL and the LVEF [4] was 28 ± 0.6%. The LVESV [4] was 48 ± 1.2 mL, the “LV−dP/dt” value [4] was 1448 ± 155 mmHg/sec and the MPAP [4] was 15 ± 0.7 mmHg. It also gave a PAWP [4] of 10.1 ± 0.6 mmHg, a PSAP [4] of 97 ± 3.3 mmHg and an SV [4] of 18 ± 0.5 mL. It also gave an SVR [4] of 4757 ± 287 dynes-sec-cm^−5, a CO [5] of 1.50 ± 0.04 L/min and an HR [5] of 77 ± 1.0 beats/min. The “LV+dP/dt” value [5] was 1691 ± 96 mmHg/sec, the LVEDP [5] was 13 ± 1.4 mmHg and the LVEDV [5] was 65 ± 1.1 mL. The LVEF [5] was 30 ± 0.9%, the LVESV [5] was 45 ± 1.2 mL and the “LV−dP/dt” value [5] was 1249 ± 120 mmHg/sec. For the same substance, the MPAP [5] was 15 ± 0.8 mmHg, the PAWP [5] was 9.6 ± 0.7 mmHg and the PSAP [5] was 93 ± 3.6 mmHg. For the same substance, the SV [5] was 19 ± 0.5 mL, the SVR [5] was 4134 ± 195 dynes-sec-cm^−5 and the CO [6] was 1.68 ± 0.06^++,a,c L/min. For the same substance, the HR [6] was 79 ± 2.0 beats/min, the “LV+dP/dt” value [6] was 1667 ± 88 mmHg/sec and the LVEDP [6] was 12 + 1.4 mmHg. For the same substance, the LVEDV [6] was 63 ± 1.3 mL, the LVEF [6] was 34 ± 1.4^+++,b,e % and the LVESV [6] was 42 ± 1.4^++,a mL. For the same substance, the “LV−dP/dt” value [6] was 1166 ± 82 mmHg/sec, the MPAP [6] was 15 ± 0.8 mmHg and the PAWP [6] was 9.0 ± 0.6 mmHg. For the same substance, the PSAP [6] was 92 ± 4.1 mmHg, the SV [6] was 21 ± 0.8^+++,a,c mL and the SVR [6] was 3638 ± 191^+,d dynes-sec-cm^−5. The CO [7] was 1.83 ± 0.09^+++,b,e L/min, the HR [7] was 81 ± 3.6 beats/min and the “LV+dP/dt” value [7] was 1640 ± 88 mmHg/sec. For the same substance, the LVEDP [7] was 12 ± 1.2 mmHg, the LVEDV [7] was 62 ± 1.3 mL and the LVEF [7] was 37 ± 1.2^+++,b,e %. The LVESV [7] was 39 ± 1.4^+++,b,e mL, the “LV−dP/dt” value [7] was 1124 ± 92 mmHg/sec and the MPAP [7] was 15 ± 0.9 mmHg. For the same substance, the PAWP [7] was 9.4 ± 0.8 mmHg, the PSAP [7] was 92 ± 4.3 mmHg and the SV [7] was 23 ± 0.6^+++,a,e mL. The SVR [7] was 3372 ± 238^++,a,c dynes-sec-cm^−5, the CO [8] was 1.55 ± 0.08 L/min and the HR [8] was 82 ± 4 beats/min. For the same substance, the “LV+dP/dt” value [8] was 1618 ± 79 mmHg/sec, the LVEDP [8] was 15 ± 2 mmHg and the LVEDV [8] was 68 ± 2.1 mL. For the same substance, the LVEF [8] was 28 ± 0.5%, the LVESV [8] was 49 ± 1.8 mL and the MPAP [8] was 16 ± 0.8 mmHg. For the same substance, the PSAP [8] was 90 ± 4 mmHg, the SV [8] was 19 ± 0.4 mL and the “infusion dose with minimal effect on left ventricular systolic and diastolic function” value (dogs with advanced heart failure, 60 minutes) was 0.43 ng/kg/min.
